Experimental data reported in patent US4446151A, “Decarboxylase-inhibiting fluorinated pentane diamine derivatives” (Merrell Toraude et Compagnie, priority 1982, dated 1984).

Molecular target: T1, ornithine decarboxylase (ODC) (Rattus norvegicus, UniProt P09057)
T1 construct: is prepared from the livers of rats which have been injected with thioacetamide; from tissue; host or cells: liver of rats injected with thioacetamide (150 mg/kg, 18 h before sacrifice); purified about ten fold by acid treatment at pH 4.6
T1 sequence (P09057 1-461): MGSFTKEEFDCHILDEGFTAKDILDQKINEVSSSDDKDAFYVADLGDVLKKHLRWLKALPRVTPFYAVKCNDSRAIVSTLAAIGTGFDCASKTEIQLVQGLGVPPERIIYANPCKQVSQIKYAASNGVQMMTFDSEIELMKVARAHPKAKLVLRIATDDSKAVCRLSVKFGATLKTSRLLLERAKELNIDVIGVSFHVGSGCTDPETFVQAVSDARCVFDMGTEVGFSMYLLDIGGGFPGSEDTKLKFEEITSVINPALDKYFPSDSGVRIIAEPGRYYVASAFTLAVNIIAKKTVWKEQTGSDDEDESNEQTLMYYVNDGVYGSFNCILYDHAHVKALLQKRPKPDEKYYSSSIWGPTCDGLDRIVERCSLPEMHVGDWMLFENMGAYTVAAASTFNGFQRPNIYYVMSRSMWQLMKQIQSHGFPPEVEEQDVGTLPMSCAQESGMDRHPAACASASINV
Assay: in vitro inhibition (time-dependent inactivation) of ornithine decarboxylase (ODC) prepared from rat liver
Assay type: biochemical
Conditions: 37° C.; for .tau.50 (half-life, at infinite concentration of inhibitor): pH 7.1, Kitz and Wilson; for Half-life (t1/2) at 10 μM: inhibitor at 10 μM, pH 7.1
Experimental: At different times 50 μl aliquots are transferred into a 1 mL assay medium containing sodium phosphate (30 mM, pH 7.1), dithiothreitol (5 mM), pyridoxal phosphate (0.1 mM), L-ornithine (0.081 μmol), and DL-[1-^14 C]ornithine (0.043 μmol, 58 Ci/mol, Amersham) in a closed vessel in which a filter paper moistered with 50 μl hyamine hydroxide (1M) is fitted. The reaction is allowed to proceed for 60 min at 37° C. and then terminated by addition of 0.5 ml of 40% trichloroacetic acid. After an additional 30 min, the CO2 absorbed on the filter paper is counted in a standard scintillation cocktail.

Row | SMILES | .tau.50 (half-life, at infinite concentration of inhibitor) [min] | Half-life (t1/2) at 10 μM [min]
1 | C=C(CN)CC(N)C(F)F (stereo not shown) [E, 1,1-difluoro-2,5-diamino-4-methylene-pentane] | 2.2 | 14
2 | NCC(=O)CC(N)(CF)C(=O)O (stereo not shown) [A, 2-fluoromethyl-2,5-diamino-4-oxo-pentanoic acid] | 3.1 | 4.5
3 | C=C(CN)CC(N)(CF)C(=O)O (stereo not shown) [D, 2-fluoromethyl-2,5-diamino-4-methylene-pentanoic acid] | 3.6 | 23
4 | C=C(CN)CC(N)CF (stereo not shown) [B, 1-fluoro-2,5-diamino-4-methylene-pentane] | 2.6 | 6.4
5 | NCC(=O)CC(N)CF (stereo not shown) [C, 1-fluoro-2,5-diamino-4-oxo-pentane] | 1.6 | 2.8
